The values that follow come from the Kinase Knowledgebase extract (Sharma et al. 2016).

Where only a bound is given, the exact number is not on record here.

The experiment deals with CDK2 (human) (UniProt P24941). Kind of experiment: Enzyme Assay.
For `COc1c(N[C@H]2CC[C@H](N)CC2)nc2ccnn2c1Nc1ccc(F)c(Cl)c1`, the IC50 (commonly the midpoint of a concentration-inhibition curve) was under 100 µM. To `COc1ccc(-c2ccc(Nc3c(C)c(N[C@H]4CC[C@H](N)CC4)nc4ccnn34)cc2)cc1` belongs under 100 µM; to `Cc1c(N[C@H]2CC[C@H](N)CC2)nc2ccnn2c1Nc1ccc(-c2cncnc2)cc1`, under 100 µM.

`COCc1cccc(-c2ccc(Nc3c(C)c(N[C@H]4CC[C@H](N)CC4)nc4ccnn34)cc2)c1` showed an IC50 of under 100 µM. To `Cc1c(N[C@H]2CC[C@H](N)CC2)nc2ccnn2c1Nc1ccc(-c2cn[nH]c2)cc1` belongs under 100 µM; to `Cc1c(N[C@H]2CC[C@H](N)CC2)nc2ccnn2c1Nc1cccc(Cl)c1`, under 100 µM; to `Cc1c(N[C@H]2CC[C@H](N)CC2)nc2ccnn2c1Nc1ccc(OCc2ccc(N)cc2)cc1`, under 100 µM.

In the case of `Cc1c(NC2CCCNC2)nc2ccnn2c1Nc1ccc(I)cc1` (stereo not given), the IC50 was under 100 µM. Turning to `CCc1c(N[C@H]2CC[C@H](N)CC2)nc2ccnn2c1Nc1ccc(C(N)=O)cc1`, the half-inhibitory concentration (IC50) is under 100 µM. To `N[C@H]1CC[C@H](Nc2cc(NCc3ccc(F)c(Cl)c3)n3ncc(Br)c3n2)CC1` belongs under 100 µM.

The compound `CCOc1ccc(Nc2c(C)c(N[C@H]3CC[C@H](N)CC3)nc3c(OC)cnn23)cc1` had an IC50 of under 100 µM. Compound `Cc1c(N[C@H]2CC[C@H](N)CC2)nc2ccnn2c1Nc1cccc(OCCC2CCCCC2)c1` returned an IC50 of under 100 µM. The result for `Cc1c(NC2CCCNC2)nc2ccnn2c1Nc1ccccc1F` (stereo not given) reads under 100 µM; that for `CCOc1ccc(Nc2c(C)c(N[C@@H]3CN[C@@H](C(=O)O)C3)nc3ccnn23)cc1`, under 100 µM.

In the case of `Cc1c(N[C@H]2CC[C@H](N)CC2)nc2ccnn2c1Nc1ccc(-c2ccccc2O)cc1`, the IC50 is under 100 µM.

`CCc1c(N[C@H]2CC[C@H](N)CC2)nc2ccnn2c1Nc1ccc(OCc2ccccc2)cc1` gave an IC50 of under 100 µM. To `Cc1c(N[C@H]2CC[C@H](N)CC2)nc2ccnn2c1Nc1ccc(N(C)C)cc1` belongs under 100 µM.

For the compound `CCOc1ccc(Nc2c(C)c(NC(C)(C)CO)nc3ccnn23)cc1`, the IC50 is under 100 µM. `Cc1c(NC2CCCNC2)nc2ccnn2c1Nc1ccc(-c2ccc(N)cc2)cc1` (stereo not given) came in with an IC50 of under 100 µM. Take `Cc1c(N[C@H]2CC[C@H](N)CC2)nc2ccnn2c1Nc1ccc(OCc2ccccc2)cc1`: the IC50 is under 100 µM.

Regarding `CSc1cccc(Nc2c(C)c(N[C@H]3CC[C@H](N)CC3)nc3ccnn23)c1`, the IC50 is under 100 µM. With `CCCCC(=O)c1cnn2c(Nc3ccc(OCC)cc3)c(C)c(N[C@H]3CC[C@H](N)CC3)nc12`, the IC50 was under 100 µM. To `Cc1c(N[C@H]2CC[C@H](N)CC2)nc2ccnn2c1Nc1ccc2ncsc2c1` belongs under 100 µM. To `Cc1c(N[C@H]2CC[C@H](N)CC2)nc2ccnn2c1Nc1cccc(OCC(O)CO)c1` (stereo not given in full) belongs under 100 µM; to `Cc1c(N[C@H]2CC[C@H](N)CC2)nc2ccnn2c1Nc1ccc(OCC2CCCCN2)cc1` (stereo not given in full), under 100 µM; to `Cc1c(N[C@H]2CC[C@H](N)CC2)nc2c(F)cnn2c1Nc1ccc(I)cc1`, under 100 µM. The result for `Cc1c(N[C@H]2CC[C@H](N)CC2)nc2ccnn2c1Nc1ccc(OCc2cccc(Cl)c2)cc1` reads under 100 µM; that for `C=C(C)CNc1c(CC)c(N[C@H]2CC[C@H](N)CC2)nc2ccnn12`, under 100 µM; that for `Cc1c(N[C@H]2CC[C@H](N)CC2)nc2ccnn2c1Nc1ccc(-c2cccc(CO)c2)cc1`, under 100 µM. As to `N[C@H]1CC[C@H](Nc2cc(Nc3ccc(F)c(Cl)c3)n3ncc(Cl)c3n2)CC1`, the half-maximal inhibitory concentration (IC50) is under 100 µM. On to `Cc1c(N[C@H]2CC[C@H](N)CC2)nc2ccnn2c1NCC(C)(C)C`, for which the IC50 is under 100 µM. As for `COc1ccc(Nc2c(C)c(N[C@H]3CC[C@H](N)CC3)nc3ccnn23)cc1`, the IC50 was under 100 µM. As for `Cc1c(N[C@H]2CC[C@H](N)CC2)nc2ccnn2c1Nc1cccc(OCc2ccccc2Cl)c1`, the IC50 was under 100 µM.

`Cc1c(N[C@H]2CC[C@H](N)CC2)nc2ccnn2c1Nc1cccc(OCCn2ccnc2)c1` had an IC50 of under 100 µM. As to `CCOc1ccc(Nc2c(-c3ccc(OC)cc3)c(N[C@H]3CC[C@H](N)CC3)nc3ccnn23)cc1`, the IC50 is under 100 µM. To `CCc1c(NC2CCCNC2)nc2ccnn2c1Nc1ccc(Oc2ccc(C)cc2)cc1` (stereo not given) belongs under 100 µM; to `CCc1c(N[C@H]2CC[C@H](N)CC2)nc2ccnn2c1Nc1cccc(OCc2ccccc2)c1`, under 100 µM; to `Cc1c(N[C@H]2CC[C@H](N)CC2)nc2ccnn2c1Nc1ccc(-c2ccc(N(C)C)cc2)cc1`, under 100 µM. To `Cc1c(N[C@H]2CC[C@H](N)CC2)nc2ccnn2c1Nc1ccc(CO)cc1` belongs under 100 µM. To `CCc1c(N[C@H]2CC[C@H](N)CC2)nc2ccnn2c1Nc1ccc(OC)cc1` belongs under 100 µM; to `N[C@H]1CC[C@H](Nc2nc3ccnn3c(Nc3ccc(F)c(Cl)c3)c2-c2ccccc2)CC1`, under 100 µM.

In turn, `Cc1c(N[C@H]2CC[C@H](N)CC2)nc2ccnn2c1Nc1ccc(-c2cccc(C#N)c2)cc1` showed an IC50 of under 100 µM.

`CCOc1ccc(Nc2c(CC)c(N[C@H]3CC[C@H](N)CC3)nc3ccnn23)cc1`: the IC50 is under 100 µM. To `CCOc1ccc(Nc2cc(N[C@H]3CC[C@H](N)CC3)nc3c(I)cnn23)cc1` belongs under 100 µM; to `CCCOc1ccc(Nc2c(C)c(N[C@H]3CC[C@H](N)CC3)nc3ccnn23)cc1`, under 100 µM; to `Cc1c(N[C@H]2CC[C@H](N)CC2)nc2ccnn2c1Nc1ccc(OCc2cccnc2)cc1`, under 100 µM. To `Cc1c(N[C@H]2CC[C@H](N)CC2)nc2ccnn2c1Nc1ccc(OC(F)(F)F)c(Cl)c1` belongs under 100 µM; to `CCOc1ccc(Nc2c(C(C)C)c(N[C@H]3CC[C@H](N)CC3)nc3ccnn23)cc1`, under 100 µM. As to `N#Cc1cnn2c(Nc3ccc(F)c(Cl)c3)cc(N[C@H]3CC[C@H](N)CC3)nc12`, the IC50 was under 100 µM. Regarding `Cc1c(N[C@H]2CC[C@H](N)CC2)nc2ccnn2c1Nc1cccc(OCc2cccc(Cl)c2)c1`, the IC50 was under 100 µM. The result for `CCc1c(NC2CCCNC2)nc2c(Cl)cnn2c1Nc1ccc(I)cc1` (stereo not given) reads under 100 µM. The result for `Cc1c(N[C@H]2CC[C@H](N)CC2)nc2ccnn2c1Nc1ccc(-c2cccnc2)cc1` reads under 100 µM; that for `Cc1c(N[C@H]2CC[C@H](N)CC2)nc2ccnn2c1Nc1ccc(C(=O)NCc2cccnc2)cc1`, under 100 µM. `CCOc1ccc(Nc2c(OC)c(NC3CCCNC3)nc3ccnn23)cc1` (stereo not given) had an IC50 of under 100 µM. Regarding `Cc1c(N[C@H]2CC[C@H](N)CC2)nc2ccnn2c1Nc1ccc(OC2CCNC2)cc1` (stereo not given in full), the IC50 is under 100 µM.

Take `CCOc1cccc(Nc2c(CC)c(N[C@H]3CC[C@H](N)CC3)nc3ccnn23)c1`: the IC50 is under 100 µM. To `Cc1c(N[C@H]2CC[C@H](N)CC2)nc2ccnn2c1Nc1ccc(-n2ccnc2)cc1` belongs under 100 µM; to `Cc1c(N[C@H]2CC[C@H](N)CC2)nc2ccnn2c1Nc1ccc2cn[nH]c2c1`, under 100 µM.

Regarding `CCCc1c(N[C@H]2CC[C@H](N)CC2)nc2c(Br)cnn2c1Nc1ccc(F)c(Cl)c1`, the IC50 was under 100 µM.

`Cc1c(N[C@H]2CC[C@H](N)CC2)nc2ccnn2c1Nc1ccccc1` had an IC50 of under 100 µM. The result for `Cc1c(N[C@H]2CC[C@H](N)CC2)nc2ccnn2c1Nc1cccc(OCC2CCCC2)c1` reads under 100 µM. To `Cc1c(N[C@H]2CC[C@H](N)CC2)nc2ccnn2c1Nc1cccc(OCc2cccc(N)c2)c1` belongs under 100 µM. For the compound `Cc1c(N[C@H]2CC[C@H](N)CC2)nc2ccnn2c1Nc1cccc(OCc2ccccc2)c1`, the IC50 was under 100 µM.

As to `Cc1c(N[C@H]2CC[C@H](N)CC2)nc2ccnn2c1Nc1ccc(-c2ccc(OC(F)(F)F)cc2)cc1`, the IC50 is under 100 µM.

For the compound `CC(=O)c1ccc(-c2ccc(Nc3c(C)c(N[C@H]4CC[C@H](N)CC4)nc4ccnn34)cc2)s1`, the IC50 was under 100 µM. Turning to `CCOc1ccc(Nc2c(C)c(N[C@H]3CC[C@H](N)CC3)nc3c(CO)cnn23)cc1`, the IC50 was under 100 µM. To `CCc1c(N[C@H]2CC[C@H](N)CC2)nc2ccnn2c1Nc1cccc(I)c1` belongs under 100 µM; to `Cc1c(NC2CCCNC2)nc2ccnn2c1Nc1ccc(F)c(Cl)c1` (stereo not given), under 100 µM; to `Cc1c(N[C@H]2CC[C@H](N)CC2)nc2ccnn2c1Nc1ccc(-c2ccccc2C(F)(F)F)cc1`, under 100 µM. For the compound `Cc1c(N[C@H]2CC[C@H](N)CC2)nc2ccnn2c1Nc1ccc(-c2cccc(N)c2)cc1`, the IC50 was under 100 µM. To `CCOc1ccc(Nc2c(C)c(N[C@H]3CC[C@H](N)CC3)nc3c(C(C)C)cnn23)cc1` belongs under 100 µM; to `CCS(=O)(=O)c1ccc(-c2ccc(Nc3c(C)c(N[C@H]4CC[C@H](N)CC4)nc4ccnn34)cc2)cc1`, under 100 µM. In turn, `Cc1c(N[C@H]2CC[C@H](N)CC2)nc2ccnn2c1Nc1ccc(OC(F)(F)F)cc1` yielded an IC50 of under 100 µM. To `COc1cccc(COc2ccc(Nc3c(C)c(N[C@H]4CC[C@H](N)CC4)nc4ccnn34)cc2)c1` belongs under 100 µM. `Cc1c(N[C@H]2CC[C@H](N)CC2)nc2ccnn2c1Nc1ccc(-c2cccc(Cl)c2)cc1`: the IC50 is under 100 µM.

`CCc1c(N[C@H]2CC[C@H](N)CC2)nc2ccnn2c1Nc1ccccc1OC` had an IC50 of under 100 µM. In turn, `Cc1ccc(COc2cccc(Nc3c(C)c(N[C@H]4CC[C@H](N)CC4)nc4ccnn34)c2)cc1` came in with an IC50 of under 100 µM. `Cc1c(N[C@H]2CC[C@H](N)CC2)nc2ccnn2c1Nc1ccc(OCCC2CCCCN2)cc1` (stereo not given in full) registered an IC50 of under 100 µM. The result for `Cc1c(N[C@H]2CC[C@H](N)CC2)nc2ccnn2c1Nc1ccc(-c2ccc(C(F)(F)F)cc2)cc1` reads under 100 µM; that for `Cc1c(N[C@H]2CC[C@H](N)CC2)nc2ccnn2c1Nc1ccc(-c2ccc(Cl)cc2)cc1`, under 100 µM. The result for `Cc1c(N[C@H]2CC[C@H](N)CC2)nc2ccnn2c1Nc1ccc(OCCC2CCCCC2)cc1` reads under 100 µM. To `Cc1c(N[C@H]2CC[C@H](N)CC2)nc2ccnn2c1Nc1ccc(OCCc2ccncc2)cc1` belongs under 100 µM; to `Cc1c(N[C@H]2CC[C@H](N)CC2)nc2ccnn2c1Nc1ccc(-c2ccccc2)cc1`, under 100 µM.

`CCOC(=O)c1ccc(Nc2c(CC)c(N[C@H]3CC[C@H](N)CC3)nc3ccnn23)cc1Cl` returned an IC50 of under 100 µM. The compound `Cc1c(N[C@H]2CC[C@H](N)CC2)nc2ccnn2c1Nc1ccc(-c2cccc(C(F)(F)F)c2)cc1` had an IC50 of under 100 µM.
